Reference: patent US11884633B2, “Arylazole compound and pest control agent” (Nippon Soda Co., Ltd., priority 2015, dated 2024)

Experiments:
Mythimna separata = assay: Test Example 1: efficacy test on Mythimna separata (artificial diet); format: in vivo; settings: 0.8 g artificial diet mixed with 1 μl emulsion (I) (5% active ingredient); second instar larvae; 25° C.; fifth day
Protocol: (§1) 5 parts of the compound of the present invention, 93.6 parts of dimethylformamide, and 1.4 parts of polyoxyethylene alkylaryl ether were mixed and dissolved to prepare an emulsion (I) with 5% the active ingredient.
(§2) The insecticidal rate and the control rate were calculated by the following Equation. Insecticidal rate (%)=(number of dead insects/number of test insects)×100 Control rate={1−(Nt)/(Nc)}×100
0.8 g of commercially available artificial diet (Insector LFS, manufactured by Nosan Corp.) and Emulsion (I) 1 μl were well mixed and 0.2 g per each treatment group was packed in a plastic test container (1.4 ml) to prepare test feed. Two Mythimna separata second instar larvae were inoculated into each treatment group and sealed with a plastic lid. The container was placed in a thermostatic chamber at 25° C., and the insecticidal rate and food intake were examined on the fifth day. The test was performed twice. Further, a test conducted under the same conditions except that the compound of the present invention was removed from the emulsion (I) was performed as a vehicle control group.

Plutella xylostella = assay: Test Example 13: efficacy test on Plutella xylostella (soil immersion test); format: in vivo; settings: 500 ppm, 10 ml soil irrigation of chingengsai seedlings; adults released after 7 days; counted 7 days after release
Protocol: as §1, §2
Nt: Number of parasites in spray treatment group
Nc: Number of parasites in untreated group
Emulsion (I) was diluted with water such that the concentration of the compound of the present invention was set to be 500 ppm to obtain a test solution. 10 ml of the test solution was irrigated to the stocker at chingengsai seedlings (seventh true leaf development stage) planted in a small pot and placed in a greenhouse at 25° C. for 7 days. Chingengsai seedlings were transferred into glass greenhouse and 300 adults of Plutella xylostella per 50 chingengsai were released in glass greenhouse. When 7 days passed after release, the number of surviving Plutella xylostella infested in Chingengsai seedlings was counted and the control rate was calculated. The test was performed twice.

Lucilia cuprina larvae = assay: Test Example 18: contact/feeding effect test on Lucilia cuprina larvae; format: in vivo; settings: 1000 ppm in horse meat, 48 hours
Protocol: as §2
A DMSO solution of the compound of the present invention was mixed with horse meat to obtain a mixture of 1000 ppm. 20 Lucilia cuprina larvae were introduced into the test tube with the mixture. The mixture was incubated in a thermostatic chamber at a temperature of 28° C. and a humidity of 80%, and the larvae's life and death were determined 48 hours after the start of the test. The test was performed twice.

Aphis gossypii = assay: Test Example 11: efficacy test on Aphis gossypii (rooting treatment test); format: in vivo; settings: 8 ppm; hydroponic culture of cucumber seedlings (root treatment); 6 days
Protocol: as §1, §2
The cucumber seedlings raised in a small pot were drawn out from the small pot, the soil adhering to the root portion was washed off with tap water, and the root portion was dipped in tap water and hydroponically cultivated. Cucumber seedlings were inoculated with Aphis gossypii […]. Emulsion (I) was diluted with water to obtain a diluted solution having a concentration of the compound of the present invention of 8 ppm. The tap water was replaced with the diluent and the hydroponic culture with the diluent was continued in a thermostatic chamber at a temperature of 25° C. and a humidity of 60%. When 6 days passed from the start of hydroponic culture with the diluent, life and death determination on Aphis gossypii was performed and the insecticidal rate was calculated. The test was performed twice.

Aedes aegypti larvae = assay: Test Example 19: contact/feeding effect test on Aedes aegypti larvae; format: in vivo; settings: final concentration 10 ppm; first instar larvae; 48 hours
Protocol: as §2
A DMSO solution of the compound of the present invention was diluted with water to obtain a diluted solution of 100 ppm. 10 Aedes aegypti first instar larvae were placed in each well of a 96-well microtiter plate together with breeding water, 1/10 of 100 ppm diluted solution were added and tested at a final concentration of 10 ppm. The mixture was incubated in a thermostatic chamber at a temperature of 28° C. and a humidity of 80%, and the larvae's life and death were determined for 48 hours after the drug treatment. The test was performed twice.

Ornithodoros moubata = assay: Test Example 16: feeding effect test on Ornithodoros moubata; format: in vivo; settings: 10 ppm in defibrin blood of sheep; tritonymphs; 14 days after blood sucking
Protocol: as §2
A DMSO solution of the compound of the present invention was mixed with the defibrin blood of sheep to obtain a mixed solution of 10 ppm. 2 ml of this mixed solution was placed in a container and capped with a parafilm membrane. In addition, 20 tritonymphs of Ornithodoros moubata were released and allowed to suck the blood through a parafilm membrane for about 30 minutes. The nymphs were transferred to a storage container and incubated in a thermostatic chamber at a temperature of 28° C. and a humidity of 80%, and the life and death and developmental stage were observed 14 days after blood sucking. The test was performed twice.

Rhipicephalus microplus = assay: Test Example 17: contact effect test on Rhipicephalus microplus; format: in vivo; settings: 100 ppm test solution; larvae; 24 hours after treatment
Protocol: as §2
A DMSO solution of the compound of the present invention was diluted with water to obtain a test solution at 100 ppm. This drug solution was dropped into a container containing 20 larvae of Rhipicephalus microplus and incubated in a thermostatic chamber at a temperature of 28° C. and a humidity of 80%. The larvae's life and death were determined 24 hours after the drug treatment. The test was performed twice.

housefly = assay: Test Example 12: efficacy test on housefly; format: in vivo; settings: 100 ppm on cubic sugar; female adults; 25° C.; 24 hours
Protocol: as §2
The compound of the present invention was diluted with acetone and added dropwise to 1 g of cubic sugar such that the concentration was set to be 100 ppm. The cubic sugar was placed in a plastic cup, and ten housefly female adults were released and capped. After storage at 25° C. and 24 hours passing from releasing, life and death determination was performed and the insecticidal rate was calculated. The test was performed twice.

CCS(=O)(=O)c1cc(C(F)(F)F)cnc1-n1ncc(C=C(Cl)C(F)(F)F)c1C (mixture of isomers) [10-2]
feeding amount in comparison with the vehicle control group (Mythimna separata): ≤ 10%

CCS(=O)(=O)c1cccnc1-n1ncc(C=C(Cl)C(F)(F)F)c1C (mixture of isomers) [10-3]
feeding amount in comparison with the vehicle control group (Mythimna separata): ≤ 10%

CCS(=O)(=O)c1ccc(-n2cncn2)nc1-n1ncc(C=C(Cl)C(F)(F)F)c1C (mixture of isomers) [10-4]
feeding amount in comparison with the vehicle control group (Mythimna separata): ≤ 10%

CCS(=O)(=O)c1cc(C(F)(F)F)ccc1-c1ncc(C=C(Cl)C(F)(F)F)n1C [1-1, 5-(2-Chloro-3,3,3-trifluoroprop-1-en-1-yl)-2-(2-(ethylsulfonyl)-4-(trifluoromethyl)phenyl)-1-methyl-1H-imidazole]
control rate (Plutella xylostella): ≥ 80% | insecticidal rate (Lucilia cuprina larvae): ≥ 90% | insecticidal rate (Aphis gossypii): ≥ 80% | insecticidal rate (Aedes aegypti larvae): ≥ 90% | insecticidal rate (Ornithodoros moubata): ≥ 90% | insecticidal rate (Rhipicephalus microplus): ≥ 90% | insecticidal rate (housefly): ≥ 80%

CCS(=O)(=O)c1cc(C(F)(F)F)ccc1-c1ncc(/C=C/C(F)(F)F)n1C [1-10]
feeding amount in comparison with the vehicle control group (Mythimna separata): ≤ 10%

CCS(=O)(=O)c1ccc(-n2cncn2)nc1-c1ncc(C=C(Cl)C(F)(F)C(F)(F)F)n1C [4-10]
feeding amount in comparison with the vehicle control group (Mythimna separata): ≤ 10%

CCS(=O)(=O)c1ccc(-n2cncn2)nc1-n1ncc(C=C(Cl)C(F)(F)C(F)(F)F)c1C [10-5]
feeding amount in comparison with the vehicle control group (Mythimna separata): ≤ 10%

CCSc1cccnc1-n1ncc(C=C(Cl)C(F)(F)C(F)(F)F)c1C [10-6]
feeding amount in comparison with the vehicle control group (Mythimna separata): ≤ 10%

CCS(=O)(=O)c1cccnc1-n1ncc(C=C(Cl)C(F)(F)C(F)(F)F)c1C [10-7]
feeding amount in comparison with the vehicle control group (Mythimna separata): ≤ 10%

CCS(=O)(=O)c1ccc(-n2cnc(N)n2)nc1-n1ncc(C=C(Cl)C(F)(F)C(F)(F)F)c1C [10-10]
feeding amount in comparison with the vehicle control group (Mythimna separata): ≤ 10%

CCS(=O)(=O)c1ccc(-n2ncnc2N)nc1-n1ncc(C=C(Cl)C(F)(F)C(F)(F)F)c1C [10-11]
feeding amount in comparison with the vehicle control group (Mythimna separata): ≤ 10%

CCS(=O)(=O)c1cc(C(F)(F)F)ccc1-n1ncc(C(=O)On2nnc3ccccc32)c1C [15-2]
melting point: 211 to 215 °C

CCSc1cc(C(F)(F)F)ccc1-c1ncc(C(=O)N2CC(F)(F)C(F)(F)C2)n1C [15-3]
melting point: 155 to 156 °C
